Calls of active or inactive are those of the source. No cut-off for these calls is given here.
Tests used:
[1] = Toxicity in female BALB/c mouse model xenografted with human SU-DHL-6 cells assessed as effect on lung histopathology at 20 mg/kg, po administered once daily via gavage for 15 days by H and E staining based analysis; assay type: organism-based; settings: in vivo, 360 h, time 15 day
[2] = biological target: PI3-kinase p110-alpha/p85-alpha (Homo sapiens, UniProt P42336); assay: Inhibition of p110alpha/p85alpha (unknown origin) incubated for 2 hrs in presence of ATP by ADP-kinaseGlo reagent based assay; assay type: protein-complex assay
Sequence of PI3-kinase p110-alpha/p85-alpha (P27986 whole entry): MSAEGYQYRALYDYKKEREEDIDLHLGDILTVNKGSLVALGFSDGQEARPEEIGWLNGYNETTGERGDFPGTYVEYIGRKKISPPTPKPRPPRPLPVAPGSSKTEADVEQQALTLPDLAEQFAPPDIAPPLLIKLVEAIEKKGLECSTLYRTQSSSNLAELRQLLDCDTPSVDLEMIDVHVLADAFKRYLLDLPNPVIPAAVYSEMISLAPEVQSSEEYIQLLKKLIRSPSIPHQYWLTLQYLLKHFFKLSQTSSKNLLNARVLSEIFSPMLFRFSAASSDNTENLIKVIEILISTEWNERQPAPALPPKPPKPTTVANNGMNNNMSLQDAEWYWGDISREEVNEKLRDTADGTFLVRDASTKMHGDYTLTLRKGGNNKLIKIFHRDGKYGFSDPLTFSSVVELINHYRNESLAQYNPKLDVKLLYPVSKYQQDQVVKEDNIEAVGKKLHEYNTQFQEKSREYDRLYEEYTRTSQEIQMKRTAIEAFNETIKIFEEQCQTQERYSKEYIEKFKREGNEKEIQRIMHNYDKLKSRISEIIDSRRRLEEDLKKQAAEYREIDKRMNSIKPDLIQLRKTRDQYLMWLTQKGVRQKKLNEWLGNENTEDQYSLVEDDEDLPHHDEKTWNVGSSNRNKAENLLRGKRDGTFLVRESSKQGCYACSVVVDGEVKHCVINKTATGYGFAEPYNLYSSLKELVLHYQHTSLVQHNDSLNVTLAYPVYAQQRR
Sequence of PI3-kinase p110-alpha/p85-alpha (P42336 whole entry): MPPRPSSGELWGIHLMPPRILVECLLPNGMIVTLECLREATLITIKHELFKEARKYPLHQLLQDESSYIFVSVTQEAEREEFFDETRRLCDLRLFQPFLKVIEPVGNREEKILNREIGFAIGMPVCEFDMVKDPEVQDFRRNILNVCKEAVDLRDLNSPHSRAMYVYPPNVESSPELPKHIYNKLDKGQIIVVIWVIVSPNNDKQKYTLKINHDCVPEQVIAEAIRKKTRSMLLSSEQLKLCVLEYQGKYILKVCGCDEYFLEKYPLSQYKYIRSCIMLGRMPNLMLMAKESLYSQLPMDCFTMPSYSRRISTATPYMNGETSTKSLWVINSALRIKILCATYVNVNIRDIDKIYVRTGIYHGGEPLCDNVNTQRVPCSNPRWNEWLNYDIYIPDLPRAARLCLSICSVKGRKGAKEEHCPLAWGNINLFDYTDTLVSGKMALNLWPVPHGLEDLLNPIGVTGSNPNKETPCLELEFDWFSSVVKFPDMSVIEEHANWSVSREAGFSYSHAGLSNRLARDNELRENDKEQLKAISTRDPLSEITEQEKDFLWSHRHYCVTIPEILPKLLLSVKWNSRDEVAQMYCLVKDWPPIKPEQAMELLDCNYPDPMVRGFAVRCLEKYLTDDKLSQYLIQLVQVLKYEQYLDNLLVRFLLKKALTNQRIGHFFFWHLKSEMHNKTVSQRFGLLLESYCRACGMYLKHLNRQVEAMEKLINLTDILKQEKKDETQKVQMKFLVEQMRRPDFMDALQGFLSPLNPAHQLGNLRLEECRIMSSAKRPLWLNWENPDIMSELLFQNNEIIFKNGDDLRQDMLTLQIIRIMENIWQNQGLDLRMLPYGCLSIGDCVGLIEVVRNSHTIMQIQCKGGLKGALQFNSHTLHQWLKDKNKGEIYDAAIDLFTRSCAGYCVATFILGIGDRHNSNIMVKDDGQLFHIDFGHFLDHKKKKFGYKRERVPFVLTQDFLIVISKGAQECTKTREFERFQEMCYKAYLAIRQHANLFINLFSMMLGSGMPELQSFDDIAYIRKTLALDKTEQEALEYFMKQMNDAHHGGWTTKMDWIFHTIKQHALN

[3] = test system: SU-DHL-6; assay: Antitumor activity against human SU-DHL-6 cells xenografted in female BALB/c mouse model assessed as reduction in phosphorylated AKT level in tumor at 20 mg/kg, po administered once daily via gavage for 15 days by Western blot analysis; assay type: functional, organism-based; settings: time 15.0 day
[4] = Clearance in female BALB/c mouse at 1 mg/kg, iv measured after 12 hrs by LC-MS/MS analysis; assay type: ADME, organism-based; settings: in vivo
[5] = biological target: PI3-kinase p110-delta/p85-alpha (Homo sapiens) (UniProt P27986+O00329); assay: Inhibition of p110delta/p85alpha (unknown origin) at 100 nM incubated for 2 hrs in presence of ATP by ADP-kinaseGlo reagent based assay relative to control; assay type: protein-complex assay
[6] = test system: SUD4; assay: Induction of apoptosis in human SU-DHL-4 cells assessed as necrotic cells at 0.25 uM incubated for 24 hrs by Annexin V-FITC/PI staining based flow cytometric analysis (reference value: 0.642 %); assay type: functional
[7] = test system: SU-DHL-6; assay: Antitumor activity against human SU-DHL-6 cells xenografted in female BALB/c mouse model assessed as tumor growth inhibition at 20 mg/kg, po administered once daily via gavage for 15 days relative to control; assay type: functional; settings: SU-DHL-6, 360 h, time 15 day, read-out: TGI
[8] = test system: SU-DHL-6; assay: Induction of apoptosis in human SU-DHL-6 cells assessed as necrotic cells at 1 uM incubated for 24 hrs by Annexin V-FITC/PI staining based flow cytometric analysis (reference value: 0.246 %); assay type: functional
[9] = AUC (0 to t) in female BALB/c mouse at 1 mg/kg, iv measured after 12 hrs by LC-MS/MS analysis; assay type: ADME, organism-based; settings: in vivo
[10] = biological target: Phosphatidylinositol 4,5-bisphosphate 3-kinase catalytic subunit gamma isoform (Homo sapiens, UniProt P48736); assay: Inhibition of PI3Kgamma (unknown origin) incubated for 2 hrs in presence of ATP by ADP-kinaseGlo reagent based assay
Sequence of Phosphatidylinositol 4,5-bisphosphate 3-kinase catalytic subunit gamma isoform (P48736 whole entry, canonical isoform): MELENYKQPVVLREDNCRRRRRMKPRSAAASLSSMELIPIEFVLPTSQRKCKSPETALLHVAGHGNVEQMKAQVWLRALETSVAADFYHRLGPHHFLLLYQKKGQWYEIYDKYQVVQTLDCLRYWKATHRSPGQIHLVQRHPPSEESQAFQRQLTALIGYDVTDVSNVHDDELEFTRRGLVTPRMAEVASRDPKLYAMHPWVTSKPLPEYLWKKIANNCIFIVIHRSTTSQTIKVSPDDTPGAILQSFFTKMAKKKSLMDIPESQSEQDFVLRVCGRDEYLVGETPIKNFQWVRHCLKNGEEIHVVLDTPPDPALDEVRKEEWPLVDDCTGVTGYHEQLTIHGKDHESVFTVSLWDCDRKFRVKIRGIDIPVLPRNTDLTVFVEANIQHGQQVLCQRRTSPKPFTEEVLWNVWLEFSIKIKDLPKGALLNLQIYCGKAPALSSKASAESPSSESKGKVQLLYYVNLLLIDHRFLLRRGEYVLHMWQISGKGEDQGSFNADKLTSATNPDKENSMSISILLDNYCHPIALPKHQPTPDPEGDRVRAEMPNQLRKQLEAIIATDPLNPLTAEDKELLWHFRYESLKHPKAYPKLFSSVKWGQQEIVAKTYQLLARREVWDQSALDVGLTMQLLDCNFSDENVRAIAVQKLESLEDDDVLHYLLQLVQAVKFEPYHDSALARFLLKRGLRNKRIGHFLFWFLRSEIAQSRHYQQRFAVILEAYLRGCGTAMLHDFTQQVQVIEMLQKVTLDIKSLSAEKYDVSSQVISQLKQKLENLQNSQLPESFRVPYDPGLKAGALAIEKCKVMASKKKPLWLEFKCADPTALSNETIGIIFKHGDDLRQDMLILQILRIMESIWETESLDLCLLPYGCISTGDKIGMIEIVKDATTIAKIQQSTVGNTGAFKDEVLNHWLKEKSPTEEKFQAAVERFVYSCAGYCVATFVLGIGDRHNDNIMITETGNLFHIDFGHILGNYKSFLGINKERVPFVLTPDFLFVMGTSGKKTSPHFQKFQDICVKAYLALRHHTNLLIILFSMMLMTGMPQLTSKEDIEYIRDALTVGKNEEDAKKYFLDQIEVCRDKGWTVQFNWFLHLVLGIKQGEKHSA

[11] = Tmax in female BALB/c mouse at 20 mg/kg, po measured after 24 hrs by LC-MS/MS analysis; assay type: ADME, organism-based; settings: in vivo
[12] = test system: SU-DHL-6; assay: Induction of apoptosis in human SU-DHL-6 cells assessed as early apoptotic cells at 0.5 uM incubated for 24 hrs by Annexin V-FITC/PI staining based flow cytometric analysis (reference value: 32.1 %); assay type: functional
[13] = test system: SU-DHL-6; assay: Induction of apoptosis in human SU-DHL-6 cells assessed as decrease in Bcl-2 protein expression at 0.25 to 1 uM incubated for 12 hrs by Western blot analysis; assay type: functional, cell-based; settings: dose 0.25-1 µM
[14] = test system: SUD4; assay: Induction of apoptosis in human SU-DHL-4 cells assessed as late apoptotic cells at 0.5 uM incubated for 24 hrs by Annexin V-FITC/PI staining based flow cytometric analysis (reference value: 6.74 %); assay type: functional
[15] = species on record: Homo sapiens; assay: Inhibition of human p110alpha/p65alpha at 1 uM relative to control
[16] = AUC (0 to t) in female BALB/c mouse at 20 mg/kg, po measured after 24 hrs by LC-MS/MS analysis; assay type: ADME, organism-based; settings: in vivo
[17] = Cmax in female BALB/c mouse at 1 mg/kg, iv measured after 12 hrs by LC-MS/MS analysis; assay type: ADME, organism-based; settings: in vivo
[18] = biological target: Glycogen synthase kinase-3 beta (Homo sapiens) (UniProt P49841); assay: Inhibition of GSK-3beta phosphorylation in human SU-DHL-6 cells incubated for 12 hrs by Western blot analysis; assay type: cell-based; settings: dose 0.25-1 µM
Sequence of Glycogen synthase kinase-3 beta (Homo sapiens) (P49841 whole entry, looked up): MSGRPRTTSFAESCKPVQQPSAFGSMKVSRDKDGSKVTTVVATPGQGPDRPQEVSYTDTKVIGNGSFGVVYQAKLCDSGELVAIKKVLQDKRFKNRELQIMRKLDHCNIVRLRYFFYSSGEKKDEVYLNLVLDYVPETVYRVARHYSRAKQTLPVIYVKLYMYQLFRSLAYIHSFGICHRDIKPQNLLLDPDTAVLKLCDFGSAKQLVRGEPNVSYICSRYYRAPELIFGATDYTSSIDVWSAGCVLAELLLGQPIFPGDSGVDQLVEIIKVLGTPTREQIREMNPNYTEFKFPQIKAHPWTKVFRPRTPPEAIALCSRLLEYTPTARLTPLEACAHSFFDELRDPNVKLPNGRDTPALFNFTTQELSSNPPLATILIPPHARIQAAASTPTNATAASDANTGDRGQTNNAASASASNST

[19] = biological target: PI3-kinase p110-delta/p85-alpha (Homo sapiens, UniProt O00329); assay: Inhibition of p110delta/p85alpha (unknown origin) incubated for 2 hrs in presence of ATP by ADP-kinaseGlo reagent based assay; assay type: protein-complex assay
Sequence of PI3-kinase p110-delta/p85-alpha (P27986 whole entry): as the sequence (P27986 whole entry) above
Sequence of PI3-kinase p110-delta/p85-alpha (O00329 whole entry): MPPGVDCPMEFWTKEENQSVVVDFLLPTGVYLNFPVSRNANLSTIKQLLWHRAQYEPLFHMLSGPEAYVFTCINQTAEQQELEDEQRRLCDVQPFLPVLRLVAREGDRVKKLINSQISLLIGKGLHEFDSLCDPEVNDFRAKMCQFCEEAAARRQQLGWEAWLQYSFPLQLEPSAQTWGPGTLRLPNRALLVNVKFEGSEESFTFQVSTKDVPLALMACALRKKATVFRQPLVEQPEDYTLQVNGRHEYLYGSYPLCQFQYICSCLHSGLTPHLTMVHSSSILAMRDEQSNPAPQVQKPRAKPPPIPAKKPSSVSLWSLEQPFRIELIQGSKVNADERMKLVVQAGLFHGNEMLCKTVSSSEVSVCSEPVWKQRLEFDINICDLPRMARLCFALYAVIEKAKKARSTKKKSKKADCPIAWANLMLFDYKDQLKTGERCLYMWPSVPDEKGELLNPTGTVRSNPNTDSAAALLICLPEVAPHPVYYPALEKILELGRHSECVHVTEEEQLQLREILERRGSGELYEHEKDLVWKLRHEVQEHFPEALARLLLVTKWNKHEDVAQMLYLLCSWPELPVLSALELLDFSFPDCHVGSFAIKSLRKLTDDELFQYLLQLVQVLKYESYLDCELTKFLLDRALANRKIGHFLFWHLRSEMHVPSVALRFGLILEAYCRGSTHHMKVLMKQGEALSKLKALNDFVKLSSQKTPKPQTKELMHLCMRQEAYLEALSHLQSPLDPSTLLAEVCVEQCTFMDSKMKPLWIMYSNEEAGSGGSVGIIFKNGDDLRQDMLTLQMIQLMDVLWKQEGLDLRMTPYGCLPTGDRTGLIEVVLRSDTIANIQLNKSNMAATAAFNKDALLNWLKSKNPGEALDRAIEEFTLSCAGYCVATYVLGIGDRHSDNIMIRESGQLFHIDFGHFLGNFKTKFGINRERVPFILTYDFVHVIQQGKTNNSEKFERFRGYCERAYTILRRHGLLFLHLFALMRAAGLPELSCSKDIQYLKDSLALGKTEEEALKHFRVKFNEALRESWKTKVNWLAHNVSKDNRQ

[20] = biological target: Serine/threonine-protein kinase mTOR (Homo sapiens, UniProt P42345); assay: Inhibition of mTOR (unknown origin) incubated for 2 hrs in presence of ATP by ADP-kinaseGlo reagent based assay
[21] = biological target: Phosphatidylinositol 5-phosphate 4-kinase type-2 alpha (Homo sapiens) (UniProt P48426); assay: Inhibition of human PIP4K2alpha at 1 uM relative to control
[22] = biological target: Bromodomain testis-specific protein (Homo sapiens, UniProt Q58F21); assay: Inhibition of His-tagged BRDT-BD1 (unknown origin) incubated for 30 mins in presence of ATP by Alphascreen assay
[23] = biological target: Bromodomain-containing protein 4 (Homo sapiens, UniProt O60885); assay: Inhibition of His-tagged BRD4-BD1 (unknown origin) incubated for 30 mins in presence of ATP by Alphascreen assay
[24] = biological target: Phosphatidylinositol 4-phosphate 5-kinase type-1 gamma (Homo sapiens) (UniProt O60331); assay: Inhibition of human PIP5K1gamma at 1 uM relative to control
Sequence of Phosphatidylinositol 4-phosphate 5-kinase type-1 gamma (Homo sapiens) (O60331 whole entry): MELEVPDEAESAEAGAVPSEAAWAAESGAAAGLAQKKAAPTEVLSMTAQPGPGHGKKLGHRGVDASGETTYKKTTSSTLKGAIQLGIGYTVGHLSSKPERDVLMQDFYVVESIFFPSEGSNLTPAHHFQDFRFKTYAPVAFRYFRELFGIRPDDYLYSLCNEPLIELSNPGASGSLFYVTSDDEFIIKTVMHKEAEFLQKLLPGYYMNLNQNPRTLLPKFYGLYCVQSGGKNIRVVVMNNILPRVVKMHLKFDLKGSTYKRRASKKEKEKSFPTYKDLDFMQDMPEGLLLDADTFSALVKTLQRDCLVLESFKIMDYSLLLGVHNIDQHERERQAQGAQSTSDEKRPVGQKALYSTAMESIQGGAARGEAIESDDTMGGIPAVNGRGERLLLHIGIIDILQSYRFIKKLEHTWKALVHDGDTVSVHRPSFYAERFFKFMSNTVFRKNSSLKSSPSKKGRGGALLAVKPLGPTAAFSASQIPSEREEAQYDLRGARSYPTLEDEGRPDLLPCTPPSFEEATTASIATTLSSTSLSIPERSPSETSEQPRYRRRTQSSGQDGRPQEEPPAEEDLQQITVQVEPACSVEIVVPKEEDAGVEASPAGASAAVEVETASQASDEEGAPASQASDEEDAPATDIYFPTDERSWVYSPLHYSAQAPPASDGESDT

[25] = biological target: Glycogen synthase kinase-3 beta (Homo sapiens) (UniProt P49841); assay: Inhibition of GSK-3beta phosphorylation in human SU-DHL-4 cells at 0.25 to 1 uM incubated for 12 hrs by Western blot analysis; assay type: cell-based; settings: dose 0.25-1 µM
[26] = test system: SU-DHL-6; assay: Induction of apoptosis in human SU-DHL-6 cells assessed as necrotic cells at 0.25 uM incubated for 24 hrs by Annexin V-FITC/PI staining based flow cytometric analysis (reference value: 0.246 %); assay type: functional
[27] = test system: SU-DHL-6; assay: Induction of apoptosis in human SU-DHL-6 cells assessed as late apoptotic cells at 0.25 uM incubated for 24 hrs by Annexin V-FITC/PI staining based flow cytometric analysis (reference value: 6.43 %); assay type: functional
[28] = test system: SU-DHL-6; assay: Induction of apoptosis in human SU-DHL-6 cells assessed as early apoptotic cells at 0.25 uM incubated for 24 hrs by Annexin V-FITC/PI staining based flow cytometric analysis (reference value: 32.1 %); assay type: functional
[29] = Cmax in female BALB/c mouse at 20 mg/kg, po measured after 24 hrs by LC-MS/MS analysis; assay type: ADME, organism-based; settings: in vivo
[30] = Toxicity in female BALB/c mouse model xenografted with human SU-DHL-6 cells assessed as effect on heart histopathology at 20 mg/kg, po administered once daily via gavage for 15 days by H and E staining based analysis; assay type: organism-based; settings: in vivo, 360 h, time 15 day
[31] = test system: SUD4; assay: Induction of apoptosis in human SU-DHL-4 cells assessed as viable cells at 0.25 uM incubated for 24 hrs by Annexin V-FITC/PI staining based flow cytometric analysis (reference value: 65.2 %); assay type: functional; settings: read-out: Activity
[32] = test system: SUD4; assay: Induction of apoptosis in human SU-DHL-4 cells assessed as necrotic cells at 0.5 uM incubated for 24 hrs by Annexin V-FITC/PI staining based flow cytometric analysis (reference value: 0.642 %); assay type: functional
[33] = test system: SU-DHL-6; assay: Antitumor activity against human SU-DHL-6 cells xenografted in female BALB/c mouse model assessed as reduction in c-Myc level in tumor at 20 mg/kg, po administered once daily via gavage for 15 days by Western blot analysis; assay type: functional, organism-based; settings: time 15.0 day

For `Cn1cc(-c2nc(N3CCOCC3)c3sc(CN4CCC(C(C)(C)O)CC4)cc3n2)c2cc[nH]c2c1=O`, the Activity [1] was “Non-toxic”, the IC50 [2] was 6130 nM and the Activity [3] was “Active”. The clearance [4] was 112 mL/min/kg, the inhibition [5] was 41.6% and the Activity [6] was 1.34%. For the same compound, the inhibition in vivo at 20 mg/kg [7] was 70.8%, the Activity [8] was 0.58% and the AUC(0-t) at 12 h [9] was 145 ng·h/mL. It also gave an IC50 [10] of 915 nM, a Tmax [11] of 30 min and an Activity [12] of 41.8%. For the same compound, the Activity [13] was “Active; Modest Effect Observed”, the Activity [14] was 17.3% and the inhibition [15] was 41.9%. For the same compound, the AUC(0-t) at 24 h [16] was 2190 ng·h/mL, the Cmax [17] was 544 ng/mL and the inhibition [18] was “Dose-dependent-effect”. For the same compound, the IC50 [19] was 112 nM, the IC50 [20] was > 10000 nM and the inhibition [21] was 0.3%. The IC50 [22] was 46 nM, the IC50 [23] was 19 nM and the inhibition [24] was 75.7%. The inhibition [25] was “Active”, the Activity [26] was 0.481% and the Activity [27] was 6.32%. For the same compound, the Activity [28] was 39.5%, the Cmax [29] was 228 ng/mL and the Activity [30] was “Non-toxic”. For the same compound, the viability at 0.25 µM [31] was 53.7%, the Activity [32] was 2.8% and the Activity [33] was “Active”.
